From patent publication US20250281483A1, “TRANSCRIPTION FACTOR EB ACTIVATORS AND USES THEREOF” (Astellas Engineered Small Molecules US, Incorporated, priority 2022, published 2025) come the findings set out here.

Test system in one data set: not listed separately
Put plainly: In Vitro Liver Microsomes Metabolic Stability Assay, mouse. It counts as in vitro ADME. As to conditions: mouse liver microsomes 0.5 mg/mL, 1 μM compound, NADPH, 0 and 30 min; scale-up CLint; read-out: CLint, Mouse LM. Here is the method: (§1) In Vitro Liver Microsomes Metabolic Stability Assay of Different Species
(§2) 1. The liver microsomes were stored at −80° C. prior to use.
(§3) 2. The master solution was prepared according to Table 3.
(§4) 3. 40 μL of 10 mM NADPH solution was added to each well. The final concentrations of NADPH was 1 mM. The mixture was pre-warmed at 37° C. for 5 minutes. The negative control samples were prepared by replacing NADPH solutions with 40 μL of ultra-pure H2O. The negative control was used to exclude the misleading factor that resulted from instability of chemical itself. Samples with NADPH were prepared in duplicate. Negative controls were prepared in singlet.
(§5) 4. The reaction was started with the addition of 2 μL of 200 μM control compound or test compound solutions. Verapamil was used as positive control in this study. The final concentration of test compound or control compound was 1 μM.
(§6) 5. Aliquots of 50 μL were taken from the reaction solution at 0 and 30 minutes. The reaction was stopped by the addition of 4 volumes of cold acetonitrile with Internal Standard (100 nM alprazolam, 200 nM imipramine, 200 nM labetalol and 2 μM ketoprofen). Samples were centrifuged at 3, 220 g for 40 minutes. Aliquot of 90 μL of the supernatant was mixed with 90 μL of ultra-pure H2O and then used for LC-MS/MS analysis.
(§7) Peak areas were determined from extracted ion chromatograms. The slope value, k, was determined by linear regression of the natural logarithm of the remaining percentage of the parent drug vs. incubation time curve.
(§8) The in vitro half-life (in vitro t1/2) was determined from the slope value:
(§9) Conversion of the in vitro t1/2 (min) into the in vitro intrinsic clearance (in vitro CLint, in μL/min/mg protein) was done using the following equation (mean of duplicate determinations): […]
(§10) Conversion of the in vitro t1/2 (min) into the scale-up unbound intrinsic clearance (Scale-up CLint, in mL/min/kg) was done using the following equation (mean of duplicate determinations): […]
On the technique in general: Microsomes from liver hold many membrane-bound enzymes, among them those of drug oxidation.
Consider `Cc1nc2ccn(Cc3ccc(Cl)cc3)c(=O)c2cc1C(=O)NCc1ccc(F)cn1` [Example 51, 6-(4-chlorobenzyl)-N-((5-fluoropyridin-2-yl)methyl)-2-methyl-5-oxo-5,6-dihydro-1,6-naphthyridine-3-carboxamide], for which the CLint scaled at 1 μM worked out at 8.4 L/h/kg.

A further data set concerns the target T1, TFEB (Homo sapiens, UniProt P19484).
T1 sequence (P19484 1-476): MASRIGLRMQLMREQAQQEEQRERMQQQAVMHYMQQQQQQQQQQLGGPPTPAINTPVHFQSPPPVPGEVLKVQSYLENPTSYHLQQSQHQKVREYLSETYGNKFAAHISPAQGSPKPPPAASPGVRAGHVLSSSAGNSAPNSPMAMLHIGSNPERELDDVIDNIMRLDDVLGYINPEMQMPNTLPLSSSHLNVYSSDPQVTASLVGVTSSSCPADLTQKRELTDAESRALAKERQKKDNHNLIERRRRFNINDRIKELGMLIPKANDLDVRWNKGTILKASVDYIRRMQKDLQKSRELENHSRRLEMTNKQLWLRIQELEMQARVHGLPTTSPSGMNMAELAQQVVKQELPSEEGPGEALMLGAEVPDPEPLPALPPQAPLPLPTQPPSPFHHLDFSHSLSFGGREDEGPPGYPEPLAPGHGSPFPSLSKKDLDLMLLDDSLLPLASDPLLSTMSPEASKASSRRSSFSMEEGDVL
The experiment in a line: Tfeb-Translocation Assay HEK-293T-oEX-Tfeb-GFP Cell Line. It is filed as cell-based. As to conditions: HEK-293T-oEX-TFEB-GFP cells; translocation positive cells ratio; read-out: TFEB Translocation EC50. Here is the method:
Tfeb-Translocation Assay HEK-293T-oEX-Tfeb-GFP Cell Line
• 1). Added 2×10^6 cell into a T75 flask with 15 mL DiVEM medium (with 10% FBS, 1% PS, 1×GLUTAMAX, 1×MEM NEAA, 1×HEPES Buffer Solution and 5 ug/mL blasticidin). • 2). Culturing for 48-72 hours. Cells in logarithmic growth phase were taken for experiment. The other cells were passaged as described in step 1. • 3). Seeded 1×10^4 cells/30 μL/well into 384-well plate (BD 356663). Cultured overnight at 37° C. & 5% CO2 incubator. • 4). Note: Used cells <10 passage
• 1). Compounds were firstly diluted by DMSO to the stock needed (10 mM), and aliquoted and stored at −20° C. • 2). Took one aliquot each time and made 3-fold or 2-fold dilutions as indicated, total 10 doses plus one DMSO control well in the source plate. • 3). Added 150 or 90 nL/well compounds solution to the assay plate by ECHO and incubated for 6 or 18 hours respectively at 37° C. & 5% CO2 incubator.
• 1). Added 30 uL 8% PFA into the wells and incubated 20 min at room temperature. • 2). Discarded the medium, washed the wells twice with DPBS to eliminate foam and bubbles in the well.
• 1). Diluted Hoechest-333824 in DPBS to get 2 μg/mL solution and added 30 uL/well into assay plate, incubated at room temperature for 20 mins. • 2). Discarded the supernatant, washed the wells twice with DPBS to eliminate foam and bubbles in the well. Then added DPBS 20 uL/well.
3). Scanned Plate by Operetta.
• 1). Reference compound: Torin 1 • 2). Test compounds: C1, C2, C3, C4, C5, C6. • 3). Diluted compounds in 384 LDV-dilution plate according to the dilution plate map • 4). Compounds starting concentration: Torin 1: 300 nM and Test compounds: 50 uM.
• 1). Selected all nucleus by Operetta as ‘All Cells’ • 2). Calculated the EGFP average intensity inside the Nucleus region. • 3). Selected population that the EGFP mean intensity inside the Nucleus region>background as the EGFP-positive cells • 4). Selected the Surrounding region of the nucleus and calculated the EGFP mean intensity of the region • 5). Inside the EGFP-positive cell population, selected the cells with EGFP mean intensity inside the Nucleus region/the EGFP mean intensity inside the surrounding region=1.2 (This ratio could be slightly adjusted from time to time) as the Translocation positive cell. • 6). Outputted the ratio of Translocation positive cell/EGFP-positive cells as the Translocation Positive Ratio. • 7). Each time set the ratio of DMSO group (Control Group) as ˜15% and then normalized the compound group to the DMSO group.
For orientation: EC50 means the concentration needed to bring the measured effect to its halfway point. Regarding `Cc1nc2ccn(Cc3ccc(Cl)cc3)c(=O)c2cc1C(=O)NCc1ccc(F)cn1` [Example 51, 6-(4-chlorobenzyl)-N-((5-fluoropyridin-2-yl)methyl)-2-methyl-5-oxo-5,6-dihydro-1,6-naphthyridine-3-carboxamide], the concentration for a half-maximal effect (EC50) is under 0.1 µM.

For the compound `Cc1nc2ccn(Cc3ccccc3)c(=O)c2cc1C(=O)NCc1ccc(F)cn1` [Example 35, 6-benzyl-N-((5-fluoropyridin-2-yl)methyl)-2-methyl-5-oxo-5,6-dihydro-1,6-naphthyridine-3-carboxamide], the EC50 was under 0.1 µM.

For the compound `Cc1nc2ccn(C(C)c3ccccc3)c(=O)c2cc1C(=O)NCc1ccccn1` (stereo not shown) [Example 37, 2-methyl-5-oxo-6-(1-phenylethyl)-N-(pyridin-2-ylmethyl)-5,6-dihydro-1,6-naphthyridine-3-carboxamide], the EC50 fell in the range of 0.1 to 1 µM.

Consider `Cc1nc2ccn(Cc3cccc(F)c3)c(=O)c2cc1C(=O)NCc1ccccn1` [Example 55, 6-(3-fluorobenzyl)-2-methyl-5-oxo-N-(pyridin-2-ylmethyl)-5,6-dihydro-1,6-naphthyridine-3-carboxamide], for which the EC50 is under 0.1 µM.

As to `Cc1nc2ccn(Cc3ccccc3F)c(=O)c2cc1C(=O)NCc1ccccn1` [Example 56, 6-(2-fluorobenzyl)-2-methyl-5-oxo-N-(pyridin-2-ylmethyl)-5,6-dihydro-1,6-naphthyridine-3-carboxamide], the EC50 fell in the range of 0.1 to 1 µM.

As to `Cc1nc2ccn(Cc3ccccc3)c(=O)c2cc1C(=O)NCc1ccc(C(F)(F)F)cc1` [Example 25, 6-benzyl-2-methyl-5-oxo-N-(4-(trifluoromethyl)benzyl)-5,6-dihydro-1,6-naphthyridine-3-carboxamide], the EC50 is at least 10 µM.

As to `Cc1nc2ccn(CC3CCCCC3)c(=O)c2cc1C(=O)NCc1ccccn1` [Example 40, 6-(cyclohexylmethyl)-2-methyl-5-oxo-N-(pyridin-2-ylmethyl)-5,6-dihydro-1,6-naphthyridine-3-carboxamide], the EC50 was at least 10 µM.

Turning to `Cc1nc2ccn(Cc3ccc(F)cc3)c(=O)c2cc1C(=O)NCc1ccccn1` [Example 47, 6-(4-fluorobenzyl)-2-methyl-5-oxo-N-(pyridin-2-ylmethyl)-5,6-dihydro-1,6-naphthyridine-3-carboxamide], the EC50 is under 0.1 µM.

Take `Cc1nc2ccn(Cc3ccccc3)c(=O)c2cc1C(=O)NCc1cnccn1` [Example 32, 6-benzyl-2-methyl-5-oxo-N-(pyrazin-2-ylmethyl)-5,6-dihydro-1,6-naphthyridine-3-carboxamide]: the EC50 lay within 0.1 to 1 µM.

For `Cc1nc2ccn(CC3CCCCO3)c(=O)c2cc1C(=O)NCc1ccc(Cl)cc1` (stereo not shown) [Example 26, N-(4-chlorobenzyl)-2-methyl-5-oxo-6-((tetrahydro-2H-pyran-2-yl)methyl)-5,6-dihydro-1,6-naphthyridine-3-carboxamide], the EC50 is 0.1 to 1 µM.

`Cc1nc2ccn(Cc3ccccc3)c(=O)c2cc1C(=O)NCc1ccc(Cl)cc1` [Example 22, 6-benzyl-N-(4-chlorobenzyl)-2-methyl-5-oxo-5,6-dihydro-1,6-naphthyridine-3-carboxamide]: the EC50 was under 0.1 µM.

Regarding `Cc1nc2ccn(-c3ccccc3)c(=O)c2cc1C(=O)NCc1ccccn1` [Example 46, 2-methyl-5-oxo-6-phenyl-N-(pyridin-2-ylmethyl)-5,6-dihydro-1,6-naphthyridine-3-carboxamide], the EC50 was in the range of 1 to 10 µM.

With `COCCOCCOc1ccc(Cn2ccc3nc(C)c(C(=O)NCc4ccc(Cl)cn4)cc3c2=O)cc1` [Example 64, N-((5-chloropyridin-2-yl)methyl)-6-(4-(2-(2-methoxyethoxy)ethoxy)benzyl)-2-methyl-5-oxo-5,6-dihydro-1,6-naphthyridine-3-carboxamide], the EC50 was in the range of 1 to 10 µM.

With `Cc1ncc(CNC(=O)c2cc3c(=O)n(Cc4ccccc4)ccc3nc2C)o1` [Example 4, 6-benzyl-2-methyl-N-((2-methyloxazol-5-yl)methyl)-5-oxo-5,6-dihydro-1,6-naphthyridine-3-carboxamide], the EC50 fell in the range of 0.1 to 1 µM.

Consider `Cc1nc2ccn(Cc3ccc(F)cn3)c(=O)c2cc1C(=O)NCc1ccccn1` [Example 44, 6-((5-fluoropyridin-2-yl)methyl)-2-methyl-5-oxo-N-(pyridin-2-ylmethyl)-5,6-dihydro-1,6-naphthyridine-3-carboxamide], for which the EC50 fell in the range of 1 to 10 µM.

Consider `Cc1nc2ccn(Cc3ccccc3)c(=O)c2cc1C(=O)NCCc1ccco1` [Example 73, 6-benzyl-N-(2-(furan-2-yl)ethyl)-2-methyl-5-oxo-5,6-dihydro-1,6-naphthyridine-3-carboxamide], for which the EC50 lay in the range of 1 to 10 µM.

As to `Cc1nc2ccn(Cc3ccccc3)c(=O)c2cc1C(=O)NCc1cc(F)c(Cl)cn1` [Example 57, 6-benzyl-N-((5-chloro-4-fluoropyridin-2-yl)methyl)-2-methyl-5-oxo-5,6-dihydro-1,6-naphthyridine-3-carboxamide], the EC50 is under 0.1 µM.

For `COCCn1ccc2nc(C)c(C(=O)NCc3cnc(C)o3)cc2c1=O` [Example 21, 6-(2-methoxyethyl)-2-methyl-N-((2-methyloxazol-5-yl)methyl)-5-oxo-5,6-dihydro-1,6-naphthyridine-3-carboxamide], the EC50 is at least 10 µM.

Turning to `Cc1nc(CNC(=O)c2cc3c(=O)n(Cc4ccc(F)c(F)c4)ccc3nc2C)co1` [Example 76, 6-(3,4-difluorobenzyl)-2-methyl-N-((2-methyloxazol-4-yl)methyl)-5-oxo-5,6-dihydro-1,6-naphthyridine-3-carboxamide], the EC50 is under 0.1 µM.

Take `Cc1nc2ccn(Cc3ccncc3)c(=O)c2cc1C(=O)NCc1ccccn1` [Example 52, 2-methyl-5-oxo-N-(pyridin-2-ylmethyl)-6-(pyridin-4-ylmethyl)-5,6-dihydro-1,6-naphthyridine-3-carboxamide]: the EC50 was at least 10 µM.

Test system in the next data set: not listed separately
Put plainly: In Vitro Liver Microsomes Metabolic Stability Assay, rat. It counts as in vitro ADME. As to conditions: rat liver microsomes 0.5 mg/mL, 1 μM compound, NADPH, 0 and 30 min; scale-up CLint; read-out: CLint, Rat LM. Here is the method:
as §1, §2, §3, §4, §5, §6, §7, §8, §9, §10
Consider `Cc1nc2ccn(Cc3ccc(Cl)cc3)c(=O)c2cc1C(=O)NCc1ccc(F)cn1` [Example 51, 6-(4-chlorobenzyl)-N-((5-fluoropyridin-2-yl)methyl)-2-methyl-5-oxo-5,6-dihydro-1,6-naphthyridine-3-carboxamide], for which the CLint scaled at 1 μM was determined as 2.52 L/h/kg.
